Calls of active or inactive are those of the source. The calls are words filed in the database; no cut-off is given here.
What was measured:
[1] = Octanol-phosphate buffer apparent partition coefficient, log D of the compound at pH 7.4 by GLC analysis; format: physicochemical
Mus musculus = experiment: Antiarrhythmic activity in ip dosed CF1 mouse by chloroform-fibrillation assay based ECG analysis; format: functional; settings: CF1, Heart
[2] = Acute toxicity in ip dosed CF1 mouse; settings: in vivo
[3] = Therapeutic index, ratio of LD50 for CF1 mouse to ED50 for antiarrhythmic activity in CF1 mouse; settings: in vivo
[4] = Binding affinity to calcium salt in methanol-d4 solvent by proton magnetic resonance analysis
[5] = Binding affinity to magnesium salt in methanol-d4 solvent by proton magnetic resonance analysis
[6] = Binding affinity to magnesium nitrate in anhydrous dimethyl-d6-sulfoxide solvent by proton magnetic resonance analysis
[7] = Binding affinity to calcium nitrate in anhydrous dimethyl-d6-sulfoxide solvent by proton magnetic resonance analysis

SMILES	logD [1]	ED50 (Mus musculus)	LD50 [2]	selectivity ratio [3]	Activity [4]	Activity [5]	Activity [6]	Activity [7]
CN1CC2CC(C1)CN(C(c1ccccc1)c1ccccc1)C2.Cl	-0.43	259 µmol/kg	225 µmol/kg	0.87				
CN1CC2CC(C1)CN(Cc1ccccc1)C2.CS(=O)(=O)O	-2.57	154 µmol/kg	189 µmol/kg	1.23	Active	Active		
C1CCN2C[C@@H]3C[C@@H](CN4CCCC[C@@H]34)[C@H]2C1.O.O.O.O.O.O=S(=O)(O)O [SPARTEINE SULFATE]	-1.57	150 µmol/kg	134 µmol/kg	0.89	Active	Active	inactive	inactive
Br.CCCCN1CC2CC(CN(C)C2)C1	-3.39	192 µmol/kg	207 µmol/kg	1.08				
Cl.c1ccc(CN2CC3CC(C2)CN(Cc2ccccc2)C3)cc1	-0.43	160 µmol/kg	199 µmol/kg	1.24			inactive	inactive
CCCCN1CC2CC(C1)CN(CCCC)C2.Cl	-2.07	170 µmol/kg	196 µmol/kg	1.23				
CCCCN1CC2CC(C1)CN(Cc1ccccc1)C2.Cl	-1.22	159 µmol/kg	198 µmol/kg	1.25			inactive	inactive
CC(C)C1C2CC(CN(C)C2)CN1C.Cl (stereo not given)	-3.4	191 µmol/kg	279 µmol/kg	1.46				
CC(C)N(CCC(C(N)=O)(c1ccccc1)c1ccccn1)C(C)C (stereo not given) [DISOPYRAMIDE]		60 µmol/kg	504 µmol/kg	8.4				

— ChEMBL document CHEMBL3272108, “Analogues of sparteine. 5. Antiarrhythmic activity of selected N,N'-disubstituted bispidines” (J Med Chem, 1977)
